Target: NT647-MEK1 (MEK1 residues 37–383) (Homo sapiens, UniProt Q02750)
Assay: Automated microscale thermophoresis
Assay type: binding

Sequence of NT647-MEK1 (MEK1 residues 37–383) (Q02750 37-383): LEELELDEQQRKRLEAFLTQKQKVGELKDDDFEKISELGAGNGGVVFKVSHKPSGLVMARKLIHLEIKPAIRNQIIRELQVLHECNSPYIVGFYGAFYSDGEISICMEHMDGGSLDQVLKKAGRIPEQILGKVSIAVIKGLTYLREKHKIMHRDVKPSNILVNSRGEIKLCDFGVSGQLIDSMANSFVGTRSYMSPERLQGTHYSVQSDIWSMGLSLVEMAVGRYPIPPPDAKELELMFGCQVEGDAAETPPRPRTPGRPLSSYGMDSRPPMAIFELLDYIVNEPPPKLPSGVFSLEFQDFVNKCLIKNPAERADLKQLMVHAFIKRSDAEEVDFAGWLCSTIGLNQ

- Kd (Kd of ATP in the absence of MgCl2, without MgCl2): 140 µM
- Kd (Kd of ATP in the presence of MgCl2, MST buffer with 10 mM MgCl2): 4.5 µM
Compound: Nc1ncnc2c1ncn2[C@@H]1O[C@H](COP(=O)(O)OP(=O)(O)OP(=O)(O)O)[C@@H](O)[C@H]1O [ATP, adenosine triphosphate]

From paper PMC4800460 (Journal of Biomolecular Screening, 2015)
